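Assay format: 96-well plates, 48-hour exposure. GI50: concentration for 50% inhibition of growth.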 The source made the active and inactive calls. No stated cut-off is given here; in the data, active = GI50 up to about 1.1 µM and inactive = higher.
What was measured:
Test in all cases: inhibition of tumour cell growth, NCI panel, 48 h
[1] = system: UACC-257
[2] = system: SNB-19
[3] = system: RXF 393
[4] = system: HL-60
[5] = system: U-251
[6] = system: NCI-H226
[7] = system: OVCAR-8
[8] = system: T47D
[9] = system: MDA-N
[10] = system: SF-268
[11] = system: A549
[12] = system: OVCAR-5
[13] = system: SK-MEL-28
[14] = system: CAKI-1
[15] = system: K562
[16] = system: 786-0
[17] = system: M14
[18] = system: BT-549
[19] = system: SK-OV-3

Measured: GI50

CC(=O)O[C@H]1[C@@H]2OC(=O)[C@@](O)(CC3CCCO3)[C@@H]2CC(=O)[C@](C)(O)CC/C=C(\C)CCC[C@@H]1C (some centres not stated)
inactive: [1] 70.3 µM | [2] > 100 µM | [3] 20 µM | [4] 21.5 µM | [5] 69.8 µM | [6] 15.6 µM | [7] 35.6 µM | [8] 24.8 µM | [9] 20.6 µM | [10] > 100 µM | [11] 40.6 µM | [12] > 100 µM | [13] 20.3 µM | [14] 19.9 µM | [15] 24.4 µM | [16] 37.9 µM | [17] 40.4 µM | [18] 26.2 µM

CC(C)(C)OC(=O)[N+](=N)C(=O)C1CCC(=O)N1C(=O)OCc1ccccc1 (configuration not stated)
inactive: [2] > 100 µM | [3] > 100 µM | [4] > 100 µM | [5] > 100 µM | [6] > 100 µM | [7] > 100 µM | [8] > 100 µM | [9] > 100 µM | [10] > 100 µM | [11] > 100 µM | [12] > 100 µM | [13] > 100 µM | [14] > 100 µM | [15] > 100 µM | [16] > 100 µM | [19] > 100 µM | [17] > 100 µM | [18] > 100 µM

Cc1cccc(Nc2nc(NNC(=O)Cc3ccccc3)nc(NNC(=O)c3ccncc3)n2)c1
inactive: [1] > 10 µM | [2] > 10 µM | [3] > 10 µM | [4] > 10 µM | [6] > 10 µM | [7] > 10 µM | [8] > 10 µM | [9] > 10 µM | [10] > 10 µM | [11] > 10 µM | [13] > 10 µM | [14] > 10 µM | [16] > 10 µM | [19] > 10 µM | [17] > 10 µM | [18] > 10 µM

C/C(=C/c1ccccc1)CN(C(=O)/C=C\Sc1ccccc1)C(C)(C)C
inactive: [1] 48.3 µM | [2] > 100 µM | [3] > 100 µM | [4] 28 µM | [5] > 84.9 µM | [6] > 94.4 µM | [7] > 83.8 µM | [8] > 31.2 µM | [9] > 100 µM | [11] 60.1 µM | [12] > 100 µM | [13] > 100 µM | [14] > 100 µM | [15] 27.2 µM | [16] > 100 µM | [19] > 100 µM | [17] > 100 µM | [18] > 43.7 µM

Cc1cnc2cc(Cl)ccc2c1SCC(=O)O
inactive: [1] > 100 µM | [2] > 100 µM | [3] > 100 µM | [4] > 100 µM | [5] > 100 µM | [6] > 100 µM | [7] > 100 µM | [8] > 100 µM | [9] > 100 µM | [10] > 100 µM | [11] > 100 µM | [12] > 100 µM | [13] > 100 µM | [14] > 100 µM | [15] > 100 µM | [16] > 100 µM | [17] > 100 µM | [18] > 100 µM

CSc1ccc(/C=C2\N=C(c3ccccc3)N(c3nc4cc(Cl)c(F)cc4s3)C2=O)cc1
inactive: [1] > 100 µM | [2] 25.1 µM | [3] 19.1 µM | [4] 38.3 µM | [5] 19.6 µM | [7] 20 µM | [8] 26.1 µM | [9] 30.3 µM | [10] 32.3 µM | [11] 33.7 µM | [12] 71.3 µM | [13] > 100 µM | [14] > 100 µM | [15] 71.3 µM | [16] 63.1 µM | [19] 64.3 µM | [17] 58.3 µM | [18] 32.8 µM

CNC(=O)OCC1=C(COC(=O)NC)C(C)N(c2ccccc2)C1 (configuration not stated)
inactive: [1] 35.6 µM | [2] 58.5 µM | [3] 28.4 µM | [4] 21.7 µM | [5] 31.8 µM | [6] 11.3 µM | [7] 36.6 µM | [8] 26.7 µM | [9] 33.8 µM | [10] 37.7 µM | [11] 48 µM | [12] 25.4 µM | [13] 35.3 µM | [15] 26.7 µM | [16] 47.2 µM | [19] 42.4 µM | [17] 30.1 µM | [18] 50.9 µM

N#CC1=C(S)N(C2OC(CO)C(O)C(O)C2O)C(c2ccccc2)=CC1c1cccs1 (configuration not stated)
inactive: [1] 21.7 µM | [2] > 10 µM | [3] 20 µM | [4] 28.9 µM | [5] 20 µM | [6] 16.6 µM | [7] 22.3 µM | [8] 19.2 µM | [9] 15.4 µM | [10] 24.8 µM | [11] 20 µM | [12] 51.1 µM | [13] 21.1 µM | [14] 23.1 µM | [15] 31.1 µM | [16] 16.5 µM | [17] 33.3 µM | [18] 16.1 µM
